Inconclusive results and toxic doses are left out.
Test system: L1210 leukemia ip in BDF1 mice, survival T/C
Assay: NCI In Vivo Anticancer Drug Screen. Data for tumor model L1210 Leukemia (intraperitoneal) in B6D2F1 (BDF1) mice
Settings: endpoint: mean survival time, higher = longer survival
Outline: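 Value reflects the ratio of survival in compound-treated mice to survival in vehicle-treated controls, with both groups carrying the same transplanted tumor.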

[1] = dose: 100.0 mg/kg/injection, schedule: Q01DX009 (ip), vehicle: other
[2] = dose: 100.0 mg/kg/injection, schedule: Q04DX003 (ip), vehicle: other
[3] = dose: 200.0 mg/kg/injection, schedule: Q01DX009 (ip), vehicle: other
[4] = dose: 200.0 mg/kg/injection, schedule: Q04DX003 (ip), vehicle: other
[5] = dose: 400.0 mg/kg/injection, schedule: Q01DX009 (ip), vehicle: other
[6] = dose: 400.0 mg/kg/injection, schedule: Q04DX003 (ip), vehicle: other
[7] = dose: 100.0 mg/kg/injection, schedule: Q01DX001 (ip), vehicle: saline
[8] = dose: 200.0 mg/kg/injection, schedule: Q01DX001 (ip), vehicle: saline
[9] = dose: 400.0 mg/kg/injection, schedule: Q01DX001 (ip), vehicle: saline
[10] = dose: 100.0 mg/kg/injection, schedule: Q04DX003 (ip), vehicle: saline with Tween-80
[11] = dose: 200.0 mg/kg/injection, schedule: Q04DX003 (ip), vehicle: saline with Tween-80
[12] = dose: 400.0 mg/kg/injection, schedule: Q04DX003 (ip), vehicle: saline with Tween-80
[13] = dose: 100.0 mg/kg/injection, schedule: Q04DX003 (ip), vehicle: Klucel (hydroxypropylcellulose) (HPC)
[14] = dose: 200.0 mg/kg/injection, schedule: Q04DX003 (ip), vehicle: Klucel (hydroxypropylcellulose) (HPC)
[15] = dose: 400.0 mg/kg/injection, schedule: Q04DX003 (ip), vehicle: Klucel (hydroxypropylcellulose) (HPC)
[16] = dose: 100.0 mg/kg/injection, schedule: Q04DX003 (ip), vehicle: saline sonified
[17] = dose: 200.0 mg/kg/injection, schedule: Q04DX003 (ip), vehicle: saline sonified
[18] = dose: 400.0 mg/kg/injection, schedule: Q04DX003 (ip), vehicle: saline sonified
[19] = dose: 75.0 mg/kg/injection, schedule: Q01DX001 (ip), vehicle: carboxymethylcellulose (CMC)
[20] = dose: 150.0 mg/kg/injection, schedule: Q01DX001 (ip), vehicle: carboxymethylcellulose (CMC)

## CCCCCCCCC(=O)NCc1ccc(OC)cc1
dose: 25.0 mg/kg/injection, schedule: Q01DX009 (ip), vehicle: other
  T/C: 93 % of control
dose: 50.0 mg/kg/injection, schedule: Q01DX009 (ip), vehicle: other
  T/C: 90 % of control
[1]
  T/C: 100 % of control
[2]
  T/C: 95 % of control
[3]
  T/C: 92 % of control
[4]
  T/C: 90 % of control
[5]
  T/C: 91 % of control
[6]
  T/C: 88 % of control

## CC12C=CC3(CCC4C(C)(C)C(OC5OC(CO)C(O)C(O)C5O)C(=O)CC4(C)C3CC1=O)C2 (stereo not given)
[7]
  T/C: 100 % of control
[8]
  T/C: 109 % of control
[9]
  T/C: 97 % of control

## O=C1CSC(=S)N1c1cccc(C(F)(F)F)c1
[10]
  T/C: 108 % of control
[11]
  T/C: 101 % of control
[12]
  T/C: 104 % of control

## CCCCOc1ccc(C=Nc2ccc(C)cc2)cc1
dose: 12.5 mg/kg/injection, schedule: Q01DX009 (ip), vehicle: Klucel (hydroxypropylcellulose) (HPC)
  T/C: 110 % of control
dose: 25.0 mg/kg/injection, schedule: Q01DX009 (ip), vehicle: Klucel (hydroxypropylcellulose) (HPC)
  T/C: 109 % of control
dose: 50.0 mg/kg/injection, schedule: Q01DX009 (ip), vehicle: Klucel (hydroxypropylcellulose) (HPC)
  T/C: 103 % of control
dose: 100.0 mg/kg/injection, schedule: Q01DX009 (ip), vehicle: Klucel (hydroxypropylcellulose) (HPC)
  T/C: 93 % of control
[13]
  T/C: 97 % of control
[14]
  T/C: 95 % of control
dose: 400.0 mg/kg/injection, schedule: Q01DX009 (ip), vehicle: Klucel (hydroxypropylcellulose) (HPC)
  T/C: 92 % of control
[15]
  T/C: 107 % of control

## O=C(OCC1OC(c2ccccc2)OC1C1OC(c2ccccc2)OC1COC(=O)c1ccccc1)c1ccccc1 (stereo not given)
[7]
  T/C: 103 % of control
[8]
  T/C: 110 % of control
[9]
  T/C: 110 % of control

## O=C1CC(=P(c2ccccc2)(c2ccccc2)c2ccccc2)C(=O)O1
dose: 50.0 mg/kg/injection, schedule: Q01DX009 (ip), vehicle: saline with Tween-80
  T/C: 103 % of control
dose: 100.0 mg/kg/injection, schedule: Q01DX009 (ip), vehicle: saline with Tween-80
  T/C: 103 % of control
[13]
  T/C: 93 % of control
dose: 200.0 mg/kg/injection, schedule: Q01DX009 (ip), vehicle: saline with Tween-80
  T/C: 100 % of control
[14]
  T/C: 95 % of control
[15]
  T/C: 93 % of control

## O=S(=O)(O)/[N+]([O-])=N/O
[16]
  T/C: 94 % of control
[17]
  T/C: 100 % of control
[18]
  T/C: 95 % of control

## N#CCCN(CCC#N)/N=N\c1nc[nH]c1C(N)=O
dose: 50.0 mg/kg/injection, schedule: Q01DX001 (ip), vehicle: water
  T/C: 104 % of control
dose: 50.0 mg/kg/injection, schedule: Q04DX003 (ip), vehicle: water
  T/C: 98 % of control
dose: 100.0 mg/kg/injection, schedule: Q01DX001 (ip), vehicle: other
  T/C: 104 % of control
dose: 100.0 mg/kg/injection, schedule: Q01DX001 (ip), vehicle: water
  T/C: 97 % of control
[1]
  T/C: 101 % of control
[2]
  T/C: 104 % of control
dose: 100.0 mg/kg/injection, schedule: Q04DX003 (ip), vehicle: water
  T/C: 100 % of control
dose: 200.0 mg/kg/injection, schedule: Q01DX001 (ip), vehicle: other
  T/C: 102 % of control
dose: 200.0 mg/kg/injection, schedule: Q01DX001 (ip), vehicle: water
  T/C: 96 % of control
[3]
  T/C: 95 % of control
[4]
  T/C: 105 % of control
dose: 200.0 mg/kg/injection, schedule: Q04DX003 (ip), vehicle: water
  T/C: 102 % of control
dose: 400.0 mg/kg/injection, schedule: Q01DX001 (ip), vehicle: other
  T/C: 102 % of control
dose: 400.0 mg/kg/injection, schedule: Q01DX001 (ip), vehicle: water
  T/C: 101 % of control
[5]
  T/C: 93 % of control
[6]
  T/C: 98 % of control
dose: 400.0 mg/kg/injection, schedule: Q04DX003 (ip), vehicle: water
  T/C: 97 % of control

## CC1(C#N)CCC(CCc2ccccc2)C(=O)C1 (stereo not given)
dose: 75.0 mg/kg/injection, schedule: Q01DX001 (ip), vehicle: saline
  T/C: 109 % of control
dose: 75.0 mg/kg/injection, schedule: Q01DX009 (ip), vehicle: saline
  T/C: 99 % of control
dose: 150.0 mg/kg/injection, schedule: Q01DX001 (ip), vehicle: saline
  T/C: 95 % of control
dose: 150.0 mg/kg/injection, schedule: Q01DX009 (ip), vehicle: saline
  T/C: 94 % of control
dose: 300.0 mg/kg/injection, schedule: Q01DX001 (ip), vehicle: saline
  T/C: 92 % of control
dose: 300.0 mg/kg/injection, schedule: Q01DX009 (ip), vehicle: saline
  T/C: 96 % of control

## N=C(N)SCc1c(-c2ccccc2)oc(-c2ccccc2)c1CSC(=N)N
dose: 6.25 mg/kg/injection, schedule: Q01DX009 (ip), vehicle: saline with Tween-80
  T/C: 103 % of control
dose: 12.5 mg/kg/injection, schedule: Q01DX009 (ip), vehicle: saline with Tween-80
  T/C: 101 % of control
dose: 12.5 mg/kg/injection, schedule: Q04DX003 (ip), vehicle: saline with Tween-80
  T/C: 97 % of control
dose: 25.0 mg/kg/injection, schedule: Q04DX003 (ip), vehicle: saline with Tween-80
  T/C: 101 % of control

## O=C(Nc1c[nH]c(=O)[nH]c1=O)C(F)(F)F
dose: 50.0 mg/kg/injection, schedule: Q01DX009 (ip), vehicle: saline
  T/C: 100 % of control
dose: 50.0 mg/kg/injection, schedule: Q04DX003 (ip), vehicle: saline
  T/C: 103 % of control
dose: 100.0 mg/kg/injection, schedule: Q01DX009 (ip), vehicle: saline
  T/C: 96 % of control
dose: 100.0 mg/kg/injection, schedule: Q04DX003 (ip), vehicle: saline
  T/C: 104 % of control
dose: 200.0 mg/kg/injection, schedule: Q01DX009 (ip), vehicle: saline
  T/C: 92 % of control
dose: 200.0 mg/kg/injection, schedule: Q04DX003 (ip), vehicle: saline
  T/C: 108 % of control

## C[n+]1c(/C=C/c2ccc(O)c3ccccc23)ccc2ccccc21
[19]
  T/C: 92 % of control
[20]
  T/C: 97 % of control

## CCOc1ccc2c(ccc(C)[n+]2C)c1
[19]
  T/C: 108 % of control
[20]
  T/C: 109 % of control

## CC(C)=NNC(=O)CC(=O)NN=C(C)C
[16]
  T/C: 89 % of control
[17]
  T/C: 87 % of control
[18]
  T/C: 94 % of control

## COCc1ccc([N+](=O)[O-])o1
[7]
  T/C: 101 % of control
[8]
  T/C: 103 % of control
[9]
  T/C: 101 % of control

## CC(C)(C)NC#SNC(C)(C)C
dose: 100.0 mg/kg/injection, schedule: Q04DX002 (ip), vehicle: saline with Tween-80
  T/C: 100 % of control
dose: 200.0 mg/kg/injection, schedule: Q04DX002 (ip), vehicle: saline with Tween-80
  T/C: 92 % of control
dose: 400.0 mg/kg/injection, schedule: Q04DX002 (ip), vehicle: saline with Tween-80
  T/C: 92 % of control

## CCC1=C[C@H]2CN(CCc3c([nH]c4ccccc34)[C@@](C(=O)OC)(c3cc4c(cc3OC)N(C)[C@H]3[C@@](O)(C(=O)NC)[C@H](OC(C)=O)[C@]5(CC)C=CCN6CC[C@]43[C@@H]65)C2)C1
dose: 0.03 mg/kg/injection, schedule: Q01DX009 (ip), vehicle: saline
  T/C: 103 % of control
dose: 0.03 mg/kg/injection, schedule: Q01DX009 (ip), vehicle: water
  T/C: 103 % of control
dose: 0.06 mg/kg/injection, schedule: Q01DX009 (ip), vehicle: saline
  T/C: 114 % of control
dose: 0.06 mg/kg/injection, schedule: Q01DX009 (ip), vehicle: water
  T/C: 115 % of control
dose: 0.12 mg/kg/injection, schedule: Q01DX009 (ip), vehicle: saline
  T/C: 117 % of control
dose: 0.25 mg/kg/injection, schedule: Q01DX009 (ip), vehicle: saline
  T/C: 114 % of control
dose: 0.25 mg/kg/injection, schedule: Q01DX009 (ip), vehicle: water
  T/C: 157 % of control
dose: 1.0 mg/kg/injection, schedule: Q01DX009 (ip), vehicle: saline
  T/C: 120 % of control
dose: 1.0 mg/kg/injection, schedule: Q01DX009 (ip), vehicle: water
  T/C: 118 % of control

## C1CCN(CCCCN2CCCCC2)CC1
[7]
  T/C: 96 % of control
[8]
  T/C: 104 % of control
[9]
  T/C: 108 % of control

## C=C(Br)CNC(=O)C(C)(C)C
[10]
  T/C: 97 % of control
[11]
  T/C: 97 % of control
[12]
  T/C: 98 % of control

From PubChem BioAssay AID248 (DTP/NCI, 2004)
